Legend:
[1] = Laser-verteporfin photodynamic therapy in a patient with wet macular degeneration who was taking zeaxanthin; type: in vivo, human; details: one patient, zeaxanthin 20 milligrams per day for several months before treatment
Excerpt: Additional insights arose from a fortuitous event involving an elderly acquaintance of the Applicant, who was taking zeaxanthin and who decided to have a treatment known as “photodynamic therapy”, which uses a laser to convert a drug called verteporfin into a toxin that will kill and seal newly-growing blood vessels in the retina. The patient's doctor, who is regarded as one of the world's foremost experts in treating macular degeneration, advised the patient to stop taking zeaxanthin before the laser treatment, because (in the physician's opinion) it likely would not help, and it might interfere with the laser treatment. That advice was entirely consistent with the packaging information that accompanies verteporfin, which states that carotenoids should be avoided before treatment, since they may interfere with the treatment.
That discovery and invention arose from an event involving a personal acquaintance of the Inventor. That person was suffering from the “wet” or “exudative” form of macular degeneration, which involves abnormal and aggressive blood vessel growth in and behind the macula. They decided to have a treatment known as “photodynamic therapy”, which uses a laser that is shone directly into the eye of a patient who has been anesthetized. […]

[2] = tested on: rabbit or bovine RPE cells; details: added to RPE cell cultures; high oxygen concentrations or intense blue light; Sundelin 2001, Shaban 2002, Nilsson 2003; cited from earlier work
[3] = high dosage, people with risk factors such as smoking; cited from earlier work
RPE65 = details: Gollapalli et al 2004; cited from earlier work
[4] = people taking isotretinoin; decreased acuity under moderately dark conditions; cited from earlier work
[5] = tested on: short chain dehydrogenase enzyme that converts 11-cis-retinol into 11-cis-retinal; details: Radu et al 2003; cited from earlier work
ABCR −/− mice = details: mice with genetically engineered ABCR −/− gene defect; Radu et al 2003, US 2003/032,078; cited from earlier work

Sequence of RPE65 (Q16518 whole entry, species assumed): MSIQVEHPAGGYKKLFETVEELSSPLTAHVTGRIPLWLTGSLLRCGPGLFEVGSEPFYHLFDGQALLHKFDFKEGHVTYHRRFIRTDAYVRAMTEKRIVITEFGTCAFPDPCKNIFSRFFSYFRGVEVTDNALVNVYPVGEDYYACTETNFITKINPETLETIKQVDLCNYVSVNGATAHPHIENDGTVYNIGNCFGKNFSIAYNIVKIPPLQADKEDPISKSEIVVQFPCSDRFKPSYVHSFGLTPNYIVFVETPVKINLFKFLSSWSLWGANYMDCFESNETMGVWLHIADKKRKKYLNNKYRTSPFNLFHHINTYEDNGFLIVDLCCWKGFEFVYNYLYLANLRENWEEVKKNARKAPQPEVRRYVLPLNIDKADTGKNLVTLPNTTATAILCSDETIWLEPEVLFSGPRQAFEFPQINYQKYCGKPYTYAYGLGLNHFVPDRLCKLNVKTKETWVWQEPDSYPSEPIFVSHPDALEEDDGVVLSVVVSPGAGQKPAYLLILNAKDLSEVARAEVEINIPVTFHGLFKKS

## CC1=C(/C=C/C(C)=C/C=C/C(C)=C/C=C/C=C(C)/C=C/C=C(C)/C=C/C2=C(C)C[C@@H](O)CC2(C)C)C(C)(C)C[C@H](O)C1 [zeaxanthin, 3R,3′R-zeaxanthin]
[1]
  results of the laser-verteporfin treatment: much better than anyone had expected
[2]
  cell toxicity: helped suppress cell toxicity
  formation of lipofuscin: helped suppress cell toxicity and the formation of lipofuscin

## CC1=C[C@H](O)CC(C)(C)[C@H]1/C=C/C(C)=C/C=C/C(C)=C/C=C/C=C(C)/C=C/C=C(C)/C=C/C1=C(C)C[C@@H](O)CC1(C)C [lutein]
[2]
  cell toxicity: helped suppress cell toxicity
  formation of lipofuscin: helped suppress cell toxicity and the formation of lipofuscin

## O=C1O[C@H]([C@@H](O)CO)C(O)=C1O [Vitamin C]
[2]
  formation of lipofuscin: helped suppress cell toxicity and the formation of lipofuscin

## CC1=C(/C=C/C(C)=C/C=C/C(C)=C/C=C/C=C(C)/C=C/C=C(C)/C=C/C2=C(C)CCCC2(C)C)C(C)(C)CCC1 [beta-carotene]
[3]
  rates and risks of lung cancer: actually increases the rates and risks of lung cancer

## CC(C)=CCC/C(C)=C/C=C/C(C)=C/C=C/C(C)=C/C=C/C=C(C)/C=C/C=C(C)/C=C/C=C(\C)CCC=C(C)C [lycopene]
[2]
  cell toxicity: helped suppress cell toxicity
  formation of lipofuscin: helped suppress cell toxicity and the formation of lipofuscin

## Vitamin E
[2]
  cell toxicity: helped suppress cell toxicity
  formation of lipofuscin: helped suppress cell toxicity and the formation of lipofuscin

## CC1=C(/C=C/C(C)=C/C=C/C(C)=C\C(=O)O)C(C)(C)CCC1 [isotretinoin, 13-cis-retinoic acid]
RPE65
  inhibition of RPE65: inhibit at least two different enzymes involved in vision
[4]
  vision side effect: night blindness
[5]
  inhibition of short chain dehydrogenase: inhibit at least two different enzymes involved in vision
ABCR −/− mice
  accumulation of lipofuscin in the retinas: can help slow and reduce the accumulation of lipofuscin
